Results published in patent publication US12338203B2 (TAISHO PHARMACEUTICAL CO., LTD., priority 2019, dated 2025).

What follows are compounds tested against T1, human LPAR1 (Homo sapiens, UniProt Q92633) (assay: Test Example 1: antagonism against response of LPA-induced increase in intracellular Ca2+ concentration in RH7777 cells stably expressing human LPAR1). Details: RH7777 cells stably expressing human LPAR1; Fluo-4 fluorescence, FDSS6000; read-out: IC50 value (concentration producing 50% antagonism against response of LPA-induced increase in intracellular Ca2+ concentration) (converted).
T1 construct: expressed in transfected cells
T1 sequence (Q92633 whole entry): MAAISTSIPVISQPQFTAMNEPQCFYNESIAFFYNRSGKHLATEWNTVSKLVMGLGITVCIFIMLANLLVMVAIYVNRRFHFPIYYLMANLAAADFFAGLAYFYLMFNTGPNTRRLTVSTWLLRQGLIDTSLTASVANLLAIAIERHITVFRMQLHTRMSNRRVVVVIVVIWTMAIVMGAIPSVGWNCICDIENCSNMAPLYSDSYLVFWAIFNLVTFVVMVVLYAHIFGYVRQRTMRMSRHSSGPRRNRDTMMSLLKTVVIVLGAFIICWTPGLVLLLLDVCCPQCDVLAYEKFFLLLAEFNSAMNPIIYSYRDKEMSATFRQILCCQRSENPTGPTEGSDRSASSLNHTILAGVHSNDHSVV
Type: cell-based
In short: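 Ca2+ flux read at 540 nm emission (480 nm excitation) after LPA addition to human LPAR1-expressing RH7777 cells exposed to compound for 30 min, 37 °C, pH 7.4 HEPES-buffered HBSS. Response relative to no-compound control after basal subtraction; IC50 fitted from concentration–response.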

`CCOc1cc([C@@H](C)N(CC/C=C(\C)c2ccccc2)C(=O)NC2(C(=O)O)CC(F)(F)C2)cc(OCC)c1C` [Example 4-41] and `CCOc1cc([C@@H](C)N(CCCOc2ccccc2)C(=O)NC2(C(=O)O)CC(F)(F)C2)cc(OCC)c1C` [Example 4-98] are within 1.5-fold of each other in IC50: 4.16 nM for the first, 5.48 nM for the second.

`CCOc1cc([C@@H](C)N(CC2CC(c3ccccc3)C2)C(=O)NC2(C(=O)O)CC(F)(F)C2)cc(OCC)c1C` (some centres unmarked) [Example 4-42] and `CCOc1cc([C@@H](C)N(C(=O)NC2(C(=O)O)CC(F)(F)C2)C2CC(Cc3ccccc3)C2)cc(OCC)c1C` (some centres unmarked) [Example 4-43] are within 1.5-fold of each other in IC50: 25.2 nM for the first, 37.2 nM for the second.

`CCOc1cc([C@@H](C)N(CCCC(F)(F)c2ccccc2)C(=O)N[C@]2(C(=O)O)C[C@@H](OCC)C2)cc(OCC)c1C(C)=O` [Example 4-44, Trans-1-({[(1R)-1-(4-Acetyl-3,5-Diethoxyphenyl)Ethyl](4,4-Difluoro-4-Phenylbutyl) Carbamoyl}Amino)-3-Ethoxycyclobutane-1-Carboxylic Acid] and `CCOc1cc([C@@H](C)N(CCCC(F)(F)c2ccccc2)C(=O)N[C@]2(C(=O)O)C[C@@H](OC)C2)cc(OCC)c1C(C)=O` [Example 4-64] are within 1.5-fold of each other in IC50: 3.34 nM for the first, 2.69 nM for the second.

`CCOc1cc([C@@H](C)N(CCCC(F)(F)c2ccccc2)C(=O)NC2(C(=O)O)CC2)cc(OCC)c1C(C)=O` [Example 4-45] and `CCOc1cc([C@@H](C)N(CCCC(F)(F)c2ccccc2)C(=O)NC2(C(=O)O)CCC2)cc(OCC)c1C(C)=O` [Example 4-50] are within 1.5-fold of each other in IC50: 1.59 nM for the first, 1.21 nM for the second.

`CCOc1cc([C@@H](C)N(CCCC(F)(F)c2ccccc2)C(=O)NC2(C(=O)O)CC2)cc(OCC)c1C1CC1` [Example 4-46] and `CCOc1cc([C@@H](C)N(CCCC(F)(F)c2ccccc2)C(=O)NC2(C(=O)O)CCC2)cc(OCC)c1C1CC1` [Example 4-51] are within 1.5-fold of each other in IC50: 1.21 nM for the first, 1.11 nM for the second.

First: CCOc1cc([C@@H](C)N(CCCC(F)(F)c2ccccc2)C(=O)NC2(C(=O)O)CC2)cc(OCC)c1C(C)O (some centres unmarked) [Example 4-47]
Second: CCOc1cc(C(C)N(CCCC(F)(F)c2ccccc2)C(=O)NC2(C(=O)O)CC2)cc(OCC)c1C(C)O (centres unmarked) [Example 4-48]
The IC50 of the first is 4.1-fold higher: 10.5 nM for the first, 2.55 nM for the second.

`CCOc1c(C(C)=O)ccc([C@@H](C)N(CCCC(F)(F)c2ccccc2)C(=O)NC2(C(=O)O)CC2)c1C` [Example 4-49] and `CCOc1c(C(C)=O)ccc([C@@H](C)N(CCCC(F)(F)c2ccccc2)C(=O)NC2(C(=O)O)CCC2)c1C` [Example 4-54] are within 1.5-fold of each other in IC50: 4.94 nM for the first, 3.75 nM for the second.

Compared with `CCOc1cc([C@@H](C)N(CCCC(F)(F)c2ccccc2)C(=O)NC2(C(=O)O)CCC2)cc(OCC)c1C(C)O` (some centres unmarked) [Example 4-52], `CCOc1cc([C@@H](C)N(CCCC(F)(F)c2ccccc2)C(=O)NC2(C(=O)O)CCOCC2)cc(OCC)c1C(C)O` (some centres unmarked) [Example 4-76] is 4-fold higher in IC50: 2.68 nM for the first, 10.7 nM for the second.

Going from `CCOc1cc([C@@H](C)N(CCCC(F)(F)c2ccccc2)C(=O)NC2(C(=O)O)CCC2)cc(OCC)c1C(C)O` (some centres unmarked) [Example 4-53] to `CCOc1cc([C@@H](C)N(CCCC(F)(F)c2ccccc2)C(=O)NC2(C(=O)O)CCOCC2)cc(OCC)c1C(C)O` (some centres unmarked) [Example 4-77], the IC50 rises from 1.72 nM to 5.87 nM (3.4-fold).

`CCOc1cc([C@@H](C)N(CCCC(F)(F)c2ccccc2)C(=O)NC2(C(=O)O)CC(F)(F)C2)cc(OCC)c1C(C)=O` [Example 4-56] and `CCOc1cc([C@@H](C)N(CCCC(F)(F)c2ccccc2)C(=O)NC2(C(=O)O)CC(F)(F)C2)cc(OCC)c1C` [Example 4-58] are within 1.5-fold of each other in IC50: 1.33 nM for the first, 1.15 nM for the second.

Compared with `CCOc1cc([C@@H](C)N(CCCC(F)(F)c2ccccc2)C(=O)NC2(C(=O)O)CC(F)(F)C2)cc(OCC)c1C1(O)CC1` [Example 4-57], `CCOc1cc([C@@H](C)N(CCCC(F)(F)c2ccccc2)C(=O)NC2(C(=O)O)CC(F)(F)C2)cc(OCC)c1C1CC1` [Example 4-59] is 2.8-fold lower in IC50: 4.47 nM for the first, 1.62 nM for the second.

Going from `CCOc1c(C(C)=O)ccc([C@@H](C)N(CCCC(F)(F)c2ccccc2)C(=O)NC2(C(=O)O)CC(F)(F)C2)c1C` [Example 4-60] to `CCOc1c(C(C)=O)ccc([C@@H](C)N(CCC(F)(F)Cc2ccccc2)C(=O)NC2(C(=O)O)CC(F)(F)C2)c1C` [Example 4-88], the IC50 rises from 2.9 nM to 15.4 nM (5.3-fold).

First: CCOc1c(C(C)=O)ccc([C@@H](C)N(CCCC(F)(F)c2ccccc2)C(=O)N[C@]2(C(=O)O)C[C@@H](OC)C2)c1C [Example 4-63]
Second: CCOc1c(C(C)=O)ccc([C@@H](C)N(CCCC(F)(F)c2ccccc2)C(=O)N[C@]2(C(=O)O)C[C@H](OC)C2)c1C [Example 4-68]
The IC50 of the first is 2.2-fold lower: 3.94 nM for the first, 8.85 nM for the second.

`CCOc1cc([C@@H](C)N(CCCC(F)(F)c2ccccc2)C(=O)N[C@]2(C(=O)O)C[C@@H](OC)C2)cc(OCC)c1C(C)=O` [Example 4-65] and `CCOc1cc([C@@H](C)N(CCCC(F)(F)c2ccccc2)C(=O)N[C@]2(C(=O)O)C[C@@H](OCC)C2)cc(OCC)c1C(C)=O` [Example 4-69] are within 1.5-fold of each other in IC50: 5.3 nM for the first, 4.9 nM for the second.

Going from `CCOc1cc([C@@H](C)N(CCCC(F)(F)c2ccccc2)C(=O)NC2(C(=O)O)CC(OC)C2)cc(OCC)c1C1CC1` (some centres unmarked) [Example 4-67] to `CCOc1cc([C@@H](C)N(CCC(F)(F)Cc2ccccc2)C(=O)N[C@]2(C(=O)O)C[C@@H](OC)C2)cc(OCC)c1C1CC1` [Example 4-91], the IC50 rises from 1.27 nM to 1.97 nM (1.6-fold).

Compared with `CCOc1c(C(C)=O)ccc([C@@H](C)N(CCCC(F)(F)c2ccccc2)C(=O)NC2(C(C)=O)CC(OCC)C2)c1C` (some centres unmarked) [Example 4-71], `CCOc1c(C(C)=O)ccc([C@@H](C)N(CCCC(F)(F)c2ccccc2)C(=O)NC2(C(=O)O)CC(OCC)C2)c1C` (some centres unmarked) [Example 4-72] is 2.4-fold lower in IC50: 8.06 nM for the first, 3.34 nM for the second.

Going from `CCOc1cc([C@@H](C)N(CCCC(F)(F)c2ccccc2)C(=O)NC2(C(=O)O)CCOCC2)cc(OCC)c1C(C)=O` [Example 4-73] to `CCOc1cc([C@@H](C)N(CCC(F)(F)Cc2ccccc2)C(=O)NC2(C(=O)O)CCOCC2)cc(OCC)c1C(C)=O` [Example 4-95], the IC50 rises from 3.68 nM to 37.4 nM (10-fold).

Going from `CCOc1cc([C@@H](C)N(CCCC(F)(F)c2ccccc2)C(=O)NC2(C(=O)O)CCOCC2)cc(OCC)c1C1(O)CC1` [Example 4-74] to `CCOc1cc([C@@H](C)N(CCCC(F)(F)c2ccccc2)C(=O)NC2(C(=O)O)CCOCC2)cc(OCC)c1C1CC1` [Example 4-75], the IC50 falls from 50.5 nM to 0.992 nM (51-fold).

Compared with `CCOc1c(C(C)=O)ccc([C@@H](C)N(CCCC(F)(F)c2ccccc2)C(=O)NC2(C(=O)O)CCOCC2)c1C` [Example 4-78], `CCOc1c(C(C)=O)ccc([C@@H](C)N(CCOCc2ccccc2)C(=O)NC2(C(=O)O)CC(F)(F)C2)c1C` [Example 4-106] is 8.1-fold lower in IC50: 8.44 nM for the first, 1.04 nM for the second.

First: CCOc1cc([C@@H](C)N(CCC(F)(F)Cc2ccccc2)C(=O)NC2(C(=O)O)CC2)cc(OCC)c1C(C)=O [Example 4-79]
Second: CCOc1cc([C@@H](C)N(CCC(F)(F)Cc2ccccc2)C(=O)NC2(C(=O)O)CCC2)cc(OCC)c1C(C)=O [Example 4-81]
The IC50 of the first is 4.4-fold higher: 34.6 nM for the first, 7.89 nM for the second.

First: CCOc1cc([C@@H](C)N(CCC(F)(F)Cc2ccccc2)C(=O)NC2(C(=O)O)CC2)cc(OCC)c1C1CC1 [Example 4-80]
Second: CCOc1cc([C@@H](C)N(CCC(F)(F)Cc2ccccc2)C(=O)NC2(C(=O)O)CCC2)cc(OCC)c1C1CC1 [Example 4-82]
The IC50 of the first is 5.8-fold higher: 23.6 nM for the first, 4.1 nM for the second.

Going from `CCOc1cc([C@@H](C)N(CCC(F)(F)Cc2ccccc2)C(=O)NC2CC(C(=O)O)C2)cc(OCC)c1C1CC1` (some centres unmarked) [Example 4-83] to `CCOc1cc([C@@H](C)N(CCC(F)(F)Cc2ccccc2)C(=O)NC2(C(=O)O)CC(F)(F)C2)cc(OCC)c1C1CC1` [Example 4-87], the IC50 falls from 80.8 nM to 2.53 nM (32-fold).

Going from `CCOc1cc([C@@H](C)N(CCC(F)(F)Cc2ccccc2)C(=O)NC2(C(=O)O)CC(F)(F)C2)cc(OCC)c1C(C)=O` [Example 4-84] to `CCOc1cc([C@@H](C)N(CCOCc2ccccc2)C(=O)NC2(C(=O)O)CC(F)(F)C2)cc(OCC)c1C(C)=O` [Example 4-102], the IC50 falls from 2.88 nM to 0.815 nM (3.5-fold).

`CCOc1cc([C@@H](C)N(CCC(F)(F)Cc2ccccc2)C(=O)N[C@]2(C(=O)O)C[C@@H](OC)C2)cc(OCC)c1C(C)=O` [Example 4-89] and `CCOc1cc([C@@H](C)N(CCC(F)(F)Cc2ccccc2)C(=O)NC2(C(=O)O)CC(OC)C2)cc(OCC)c1C(C)=O` (some centres unmarked) [Example 4-90] are within 1.5-fold of each other in IC50: 7.59 nM for the first, 10.1 nM for the second.

Going from `CCOc1cc([C@@H](C)N(CCC(F)(F)Cc2ccccc2)C(=O)NC2(C(=O)O)CC(OCC)C2)cc(OCC)c1C(C)=O` (some centres unmarked) [Example 4-92] to `CCOc1cc([C@@H](C)N(CCOCc2ccccc2)C(=O)NC2(C(=O)O)CC(OCC)C2)cc(OCC)c1C(C)=O` (some centres unmarked) [Example 4-109], the IC50 falls from 7.79 nM to 1.59 nM (4.9-fold).

Compared with `CCOc1cc([C@@H](C)N(CCC(F)(F)Cc2ccccc2)C(=O)NC2(C(=O)O)CC(OCC)C2)cc(OCC)c1C(C)=O` (some centres unmarked) [Example 4-93], `CCOc1cc([C@@H](C)N(CCC(F)(F)Cc2ccccc2)C(=O)NC2(C(=O)O)CC(OCC)C2)cc(OCC)c1C1CC1` (some centres unmarked) [Example 4-94] is 2.8-fold lower in IC50: 10.1 nM for the first, 3.61 nM for the second.

First: CCOc1cc([C@@H](C)N(CCC(F)(F)Cc2ccccc2)C(=O)NC2(C(=O)O)CCOCC2)cc(OCC)c1C1CC1 [Example 4-96]
Second: CCOc1cc([C@@H](C)N(CCOCc2ccccc2)C(=O)NC2(C(=O)O)CCC2)cc(OCC)c1C(C)=O [Example 4-101]
The IC50 of the first is 6.6-fold higher: 8.25 nM for the first, 1.25 nM for the second.

`CCOc1cc([C@@H](C)N(CCO[C@@H](C)c2ccccc2)C(=O)N[C@]2(C(=O)O)C[C@@H](OCC)C2)cc(OCC)c1C(C)=O` [Example 4-97, Trans-1-[([(1R)-1-(4-Acetyl-3,5-Diethoxyphenyl)Ethyl]{2-[(1S)-1-Phenylethoxy]Ethyl}Carbamoyl)Amino]-3-Ethoxycyclobutane-1-Carboxylic Acid] and `CCOc1cc([C@@H](C)N(CCOCc2ccccc2)C(=O)NC2(C(=O)O)CC(OC)C2)cc(OCC)c1C(C)=O` (some centres unmarked) [Example 4-107] are within 1.5-fold of each other in IC50: 3.63 nM for the first, 4.08 nM for the second.

Going from `CCOc1cc([C@@H](C)N(CCOCc2ccccc2)C(=O)NC2(C(=O)O)CC(F)(F)C2)cc(OCC)c1C(C)O` (some centres unmarked) [Example 4-103] to `CCOc1cc([C@@H](C)N(CCOCc2ccccc2)C(=O)NC2(C(=O)O)CC(OC)C2)cc(OCC)c1C(C)=O` (some centres unmarked) [Example 4-108], the IC50 rises from 1.98 nM to 3.6 nM (1.8-fold).

`CCOc1cc([C@@H](C)N(CCOCc2ccccc2)C(=O)NC2(C(=O)O)CC(F)(F)C2)cc(OCC)c1C(C)O` (some centres unmarked) [Example 4-104] showed an IC50 of 1.31 nM.
